Source: patent publication US20070208039A1, “Fungicidal Mixtures for Controlling Rice Pathogens” (priority 2004, published 2007)

System: Cochliobolus miyabeanus
Test: activity against brown spot of rice caused by Cochliobolus miyabeanus, protective treatment
Type: in vivo
Settings: individual active compound, rice leaves, 6 days after inoculation
Experimental: The active compounds, separately or jointly, were prepared as a stock solution comprising 0.25% by weight of active compound in acetone or DMSO. 1% by weight of the emulsifier Uniperol® EL (wetting agent having emulsifying and dispersing action based on ethoxylated alkylphenols) was added to this solution, and the mixture was appropriately diluted with water to the desired concentration.
Use example—activity against brown spot of rice caused by Cochliobolus miyabeanus, protective treatment Leaves of potted rice seedlings of the cultivar “Tai-Nong 67” were sprayed to runoff point with an aqueous suspension having the concentration of active compound stated below. The next day, the plants were inoculated with an aqueous spore suspension of Cochliobolus miyabeanus. The test plants were then placed in climatized chambers at 22-24° C. and 95-99% relative atmospheric humidity for six days. The extent of the development of the infection on the leaves was then determined visually.
Evaluation is carried out by determining the percentage of infected leaf areas. These percentages were converted into efficacies.
The efficacy (E) is calculated as follows using Abbot's formula: E=(1−α/β)·100 α corresponds to the fungicidal infection of the treated plants in % and β corresponds to the fungicidal infection of the untreated (control) plants in % An efficacy of 0 means that the infection level of the treated plants corresponds to that of the untreated control plants; an efficacy of 100 means that the treated plants are not infected.
The expected efficacies of mixtures of active compounds are determined using Colby's formula (Colby, R. S., Weeds, 15, 20-22, 1967) and compared with the observed efficacies.
Colby's formula: E=x+y−x·y/100 • E expected efficacy, expressed in % of the untreated control, when using the mixture of the active compounds A and B at the concentrations a and b • x efficacy, expressed in % of the untreated control, when using the active compound A at the concentration a • y efficacy, expressed in % of the untreated control, when using the active compound B at the concentration b

Row | SMILES | Efficacy in % of the untreated control (6.25 ppm in the spray liquor) [%] | Efficacy in % of the untreated control (25 ppm in the spray liquor) [%]
1 | C[C@H](Nc1c(-c2c(F)cc(F)cc2F)c(Cl)nc2ncnn12)C(F)(F)F [B] | 56 | 
2 | CC1CCN(c2c(-c3c(F)cccc3Cl)c(Cl)nc3ncnn23)CC1 [A] | 33 | 
3 | CC(=O)O.CCCCCCCCCCCCNC(=N)N [II (dodine), 1-dodecylguanidinium acetate] | 0 | 0
4 | CC1CCN(c2c(-c3c(F)cc(F)cc3F)c(Cl)nc3ncnn23)CC1 [I, 5-chloro-7-(4-methylpiperidin-1-yl)-6-(2,4,6-trifluorophenyl)-[1,2,4]tri-azolo[1,5-a]pyrimidine] | 56 | 
